# According to patent US6875761B2 (Eisai Co., Ltd., priority 1997, dated 2005):
# Counter-ions that a name gives are not always drawn.
row,melting point,SMILES
1,153 to 155 °C,"COc1ccc(-c2cc3ccccc3c(N3CCN(CC(N)=O)CC3)n2)cc1 (as salt: hydrochloride) [Example 314, 1-[1-(carbamoylmethyl)piperazin-4-yl]-3-(4-methoxyphenyl)isoquinoline dihydrochloride]"
2,210 °C,"CCN1CCN(c2nc(-c3ccc(N4CCSCC4)nc3)cc3ccccc23)CC1 (as salt: hydrochloride) [Example 150, 1-(4-ethylpiperazin-1-yl)-3-[2-(thiomorpholin-4-yl)pyridin-5-yl]isoquinoline trihydrochloride]"
3,172 to 174 °C,CCNS(=O)(=O)c1ccc(-c2cc3ccccc3c(N3CCN(CCO)CC3)n2)cc1 (as salt: oxalate)
4,145 to 147 °C,"CCN1CCN(c2nc(-c3ccc(C(O)CCO)cc3)cc3ccccc23)CC1 (centres unmarked) (as salt: hydrochloride) [Example 24, 3-[4-(1,3-dihydroxypropyl)phenyl]-1-(4-ethylpiperazin-1-yl)isoquinoline hydrochloride]"
5,114 to 115 °C,"CCN1CCN(c2nc(-c3ccc(CCCO)c(OC)c3)cc3ccsc23)CC1 (as salt: hydrochloride) [Example 433, 7-(4-ethylpiperazin-1-yl)-5-[4-(3-hydroxypropyl)-3-methoxyphenyl]thieno[2,3-c]-pyridine hydrochloride]"
6,253 to 255 °C (dec.),"CCCS(=O)(=O)NCc1ccc(-c2cc3ccccc3c(N3CCN(CC)CC3)n2)cc1Cl (as salt: hydrochloride) [Example 92, 3-(3-Chloro-4-propylsulfonylaminomethylphenyl)-1-(4-ethylpiperazin-1-yl)isoquinoline Hydrochloride]"
7,181.5 to 183 °C,"CCN1CCN(c2nc(Sc3ccccc3)cc3ccccc23)CC1 (as salt: oxalate) [Example 374, 1-(4-ethylpiperazin-1-yl)-3-(phenylthio)isoquinoline oxalate]"
8,133 to 135 °C,"CCCN1CCN(c2nc(-c3ccc(OCC(C)(C)O)cc3)cc3sccc23)CC1 (as salt: hydrochloride) [Example 289, 6-[4-(2-methyl-2-hydroxypropoxy)phenyl]-4-(4-propylpiperazin-1-yl)thieno[3,2-c]pyridine hydrochloride]"
9,138 to 139 °C,CCN1CCN(c2nc(-c3ccc(C4(CCO)CCOCC4)cc3)cc3ccccc23)CC1 (as salt: hydrochloride)
10,141 to 143 °C,"CN1CCN(c2nc(-c3ccc(OCCO)cc3)cc3ccsc23)CC1 (as salt: hydrochloride) [Example 253, 5-[4-(2-hydroxyethoxy)phenyl]-7-(4-methylpiperazin-1-yl)thieno[2,3-c]pyridine Hydrochloride]"
11,117 to 121 °C,"CCN1CCN(c2nc(-c3cccc(OCCO)c3)cc3ccoc23)CC1 (as salt: hydrochloride) [Example 298, 7-(1-ethylpiperazin-4-yl)-5-[3-(2-hydroxyethoxy)phenyl]furo[2,3-c]pyridine dihydrochloride]"
12,231 to 233 °C,"CCN1CCN(c2nc(C#CCN3CCOCC3)cc3ccccc23)CC1 (as salt: oxalate) [Example 180, 3-[3-(4-Morpholinyl)-1-Propynyl]-1-(4-Ethylpiperazin-1-Yl)Isoquinoline Oxalate]"
13,227 to 235 °C,"CCN1CCN(c2nc(-c3ccc(OC)cc3)c(OC)c3ccccc23)CC1 (as salt: hydrochloride) [Example 221, 1-(1-ethylpiperazin-4-yl)-4-methoxy-3-(4-methoxyphenyl)isoquinoline dihydrochloride]"
14,143 to 146 °C,"CCN1CCN(c2nc(-c3ccc(C(=O)N4CCCC4)cc3)cc3ccsc23)CC1 (as salt: hydrochloride) [Example 274, 7-(1-ethylpiperazin-4-yl)-5-[4-(pyrrolidinyl-1-carbonyl)phenyl]thieno[2,3-c]pyridine dihydrochloride]"
15,199.5 to 200.5 °C (dec.),"CCCN(C)S(=O)(=O)c1ccc(-c2cc3ccccc3c(N3CCN(CC)CC3)n2)cc1 (as salt: hydrochloride) [Example 358, 1-(4-ethylpiperazin-1-yl)-3-[4-(N-methyl-N-propylsulfamoyl)phenyl]isoquinoline dihydrochloride]"
16,110 to 115 °C,"CCN1CCN(c2nc(-c3ccc(OCCO)cn3)cc3ccccc23)CC1 (as salt: hydrochloride) [Example 124, 1-(1-Ethylpiperazin-4-yl)-3-[5-(2-Hydroxyethoxy)Pyridin-2-yl]Isoquinoline]"
17,139 to 142 °C,"CC(C)(O)COc1ccc(-c2cc3sccc3c(N3CCN(CCO)CC3)n2)cc1 (as salt: hydrochloride) [Example 296, 6-[4-(2-methyl-2-hydroxypropoxy)phenyl]-4-[4-(2-hydroxyethyl)piperazin-1-yl]thieno]3,2-c]pyridine hydrochloride]"
18,238.5 to 240 °C (dec.),"CCN1CCN(c2nc(-c3ccc(S(=O)(=O)N4CCCC4)cc3)cc3ccccc23)CC1 (as salt: hydrochloride) [Example 356, 1-(4-ethylpiperazin-1-yl)-3-[4-(pyrrolidin-1-yl)sulfonylphenyl]isoquinoline dihydrochloride]"
19,161.5 to 163 °C,"CCN1CCN(c2nc(-c3ccc(C(=O)NC)cc3)cc3ccccc23)CC1 (as salt: hydrochloride) [Example 365, 1-(4-ethylpiperazin-1-yl)-3-[4-(N-methylcarbamoyl)phenyl]isoquinoline dihydrochloride]"
20,193 to 197 °C,"CCN1CCN(c2nc(-c3ccc(CN4CCSCC4)cc3)cc3ccccc23)CC1 (as salt: hydrochloride) [Example 94, 3-(4-Thiomorpholinylmethylphenyl)-1-(4-ethylpiperazin-1-yl)isoquinoline Hydrochloride]"
21,143 to 144 °C,"CCN1CCN(c2nc(-c3ccc(OCCOC)c(OCCOC)c3)cc3ccccc23)CC1 (as salt: hydrochloride) [Example 43, 3-[3,4-Di(2-Methoxyethoxy)Phenyl]-1-(4-Ethylpiperazin-1-Yl)Isoquinoline Hydrochloride]"
22,151 to 152.5 °C (dec.),"CCN1CCN(c2nc(-c3ccc([C@@H]4C[C@@H](O)CCO4)cc3)cc3ccccc23)CC1 (relative stereo) (as salt: hydrochloride) [Example 402, 1-(4-Ethylpiperazin-1-yl)-3-[4-(trans-4-Hydroxytetrahydropyran-2-yl)Phenyl]Isoquinoline Dihydrochloride]"
23,171 to 174 °C,"CCC(=O)NCc1ccc(-c2cc3ccccc3c(N3CCN(CC)CC3)n2)cc1 (as salt: hydrochloride) [Example 85, 3-(4-Ethylcarbonylaminomethylphenyl)-1-(4-ethylpiperazin-1-yl)isoquinoline Hydrochloride]"
24,232 to 234 °C,"CCN1CCN(c2nc(-c3cc(OCCO)cc(OCCO)c3)cc3ccccc23)CC1 (as salt: hydrochloride) [Example 38, 3-[3,5-di(2-hydroxyethoxy)phenyl]-1-(4-ethylpiperazin-1-yl)isoquinoline hydrochloride]"

row,SMILES,melting point
1,"CCN1CCN(c2nc(-c3ccc(S(=O)(=O)N4CCS(=O)(=O)CC4)cc3)cc3ccccc23)CC1 (as salt: hydrochloride) [Example 77, 3-[(1,1-Dioxythiomorpholinyl)Sulfonylphenyl]-1-(4-Ethylpiperazin-1-Yl)Isoquinoline Hydrochloride]",198 to 200 °C
2,"CCN1CCN(c2nc(-c3ccc(CCCOC)cc3)cc3ccccc23)CC1 (as salt: hydrochloride) [Example 333, 1-(4-ethylpiperazin-1-yl)-3-[4-(3-(methoxypropyl)phenyl]isoquinolinedihydrochloride]",191 to 192 °C (dec.)
3,"CCN1CCN(c2nc(-c3ccc(N4CCOCC4)cc3)cc3ccccc23)CC1 (as salt: hydrochloride) [Example 160, 3-[4-(4-morpholinyl)phenyl]-1-(4-ethylpiperazin-1-yl)isoquinoline dihydrochloride]",242 to 245 °C (dec.)
4,"CCN1CCN(c2nc(-c3ccccn3)cc3ccccc23)CC1 (as salt: hydrochloride) [Example 123, 1-(4-Ethylpiperazin-1-yl)-3-(2-Pyridyl)Isoquinoline Dihydrochloride]",160 to 162 °C
5,"CCN1CCN(c2nc(-c3ccc(OC)cc3OC)cc3ccccc23)CC1 (as salt: hydrochloride) [Example 12, 3-(2,4-dimethoxyphenyl)-1-(4-ethylpiperazin-1-yl)isoquinolin Dihydrochloride]",145 to 148 °C
6,"CCC(O)c1ccc(-c2cc3ccccc3c(N3CCN(CC)CC3)n2)cc1 (centres unmarked) (as salt: hydrochloride) [Example 19, 1-(4-ethylpiperazin-1-yl)-3-[4-(1-hydroxypropyl)phenyl]isoquinoline hydrochloride]",143 to 144 °C
7,"CCN1CCN(c2nc(-c3ccc(N4CC[S+]([O-])CC4)nc3)cc3ccccc23)CC1 (as salt: hydrochloride) [Example 151, 1-(4-ethylpiperazin-1-yl)-3-[2-(S-oxythiomorpholin-4-yl)pyridin-5-yl]isoquinoline trihydrochloride]",170 °C
8,"CCN1CCN(c2nc(-c3ccc(OCCO)cc3OC)cc3ccccc23)CC1 (as salt: hydrochloride) [Example 425, 1-(4-ethylpiperazin-1-yl)-3-[4-(2-hydroxyethoxy)-2-methoxyphenyl]isoquinoline]",140 to 142 °C
9,"CCN1CCN(c2nc(-c3cc(F)c(OCCO)c(F)c3)cc3ccccc23)CC1 (as salt: hydrochloride) [Example 370, 1-(4-ethylpiperazin-1-yl)-3-[3,5-difluoro-4-(2-hydroxyethoxy)phenyl]isoquinoline]",112.5 to 114 °C
10,"CCCC(=O)Nc1ccc(-c2cc3ccccc3c(N3CCN(CC)CC3)n2)cc1 (as salt: hydrochloride) [Example 70, 3-(4-Propylcarbonylaminophenyl]-1-(4-Ethylpiperazin-1-Yl)Isoquinoline Hydrochloride]",170 to 172 °C
11,"CCN1CCN(c2nc(-c3ccc(OCCO)cc3)cc3ccccc23)CC1 (as salt: hydrochloride) [Example 36, 1-(4-ethylpiperazin-1-yl)-3-[4-(2-hydroxyethoxy)phenyl]isoquinoline dihydrochloride]",127 to 129 °C
